This is an account of results in patent EP0181578B1, “Antibiotic polypeptide, process for its preparation and its use” (Dr. Karl Thomae GmbH, priority 1984, dated 1991).

Data set [1] concerns Staphylococcus epidermidis DSM 3095. The data set can be described thus: Resistance and sensitivity of the producer strain (strain characterisation, adaptation to rising Epidermin concentrations). Type of data set: cell-based. Conditions: for Sonstige Resistenzen: in Flüssigkultur, marked resistance. From the text: Der zur Herstellung von Epidermin verwendete Stamm wird nach Schleifer & Kloos (Int. J. Syst. Bact. 25, 50-61 (1975)) wie folgt charakterisiert: Gramfärbung : positiv Zellgröße : Durchmesser 0,5-0,8 µm Koloniengröße : ca. 1 mm Durchmesser Aussehen der Kolonien : glatt, glänzend, in der Mitte leicht erhöht Kolonienfarbe : gräulich - weiß Zellen in Kultur : oft Einzelzellen oder Zweier-Pakete, selten größere Haufen Hämolyse : auf Blutplatten ausgestrichene Kulturen zeigten starke Hämolyse Anaerobes Wachstum : der Stamm wächst auch unter anaeroben Bedingungen Lysozymempfindlichkeit: : die Zellen sind bis 2 mg/ml resistent gegen Lysozym Lysostaphinempfindlichkeit : die Zellen sind schon bei 20 µg/ml sensitiv für Lysostaphin Epidermin-Resistenz : bis 1 mg/ml nachgewiesen Sonstige Resistenzen : in Flüssigkultur zeigt der Stamm eine ausgeprägte Resistenz gegenüber Streptomycin (bis 1 mg/ml) und Spectinomycin (0,5 mg/ml) Erhöhter NaCl-Gehalt : Der Stamm wächst noch gut bis 15% Gew.-% Natriumchlorid.
(§1) Der neue Klon DSM 3095 wurde wie folgt gewonnen: Die Adaption wurde in 100 ml Erlenmeyerkölbchen mit einem seitlichen Einstich und 10 ml Nährlösung (Brain Heart Infusion) durchgeführt. Die Startkultur wurde mit 0,5 ml einer 12 Stunden alten Kultur angeimpft. Für die Kölbchen, die steigende Epidermin-Konzentrationen enthielten, dienten 0,5 ml der jeweils vorangegangenen, gutgewachsenen Kultur als Impfmaterial. Die Beurteilung des Wachstums erfolgte photometrisch bei 578 nm. […] Als Vergleichswert wurde eine unverdünnte 12 Stunden alte Kultur des literaturbekannten Vergleichsstammes NCIB 11536 ausplattiert. Nach 24 Stunden Inkubation bei 37°C zeigten sich bei der auf 10⁻⁶ verdünnten adaptierten Kultur 94 Einzelkolonien. […] Die resistenten Kolonien wurden selektioniert und auf Platten Medium 2 im Raster ausgestrichen. Nach einem Vortest auf Produktion durch Ausstechen von Stückchen mit 5 mm Durchmesser und Aktivitätstest auf Micrococcus luteus ATCC 9341 wurden produzierende Klone im Flüssigmedium getestet.

Data set [2] deals with verschiedener Mikroorganismen. As to the kind of experiment: Plate diffusion test, spectrum of activity. Conditions: for Empfindlichkeit verschiedener Mikroorganismen: Plattendiffusionstest, Tabelle 2. Type of data set: cell-based. The source says: Während der Herstellung und Isolierung des Epidermins wurde zur biologischen Charakterisierung der Plattendiffusionstest angewandt; nämlich zur Aufnahme des Wirkungsspektrums sowie zur Kontrolle von Produktion, Aufarbeitung und Anreicherung. Der Test wurde, wie bei Zähner und Maas, Biology of antibiotics (Springer Verlag, Berlin-Heidelberg-New York, 1972) beschrieben, in Petrischalen der Firma Greiner, Nürtingen mit Filterrondellen von 6 mm Durchmesser (Macherey & Nagel, Düren) durchgeführt. Die Filterrondellen wurden mit 20 µl der betreffenden Testflüssigkeit benetzt, bei Raumtemperatur auf einer Glasplatte getrocknet und auf die Testplatten aufgelegt. Die Testplatten wurden bei 37°C inkubiert und nach ca. 16 Stunden die Wachstumshemmung ausgewertet. Als Routinetestkeim diente Streptococcus pyogenes ATCC 8668 und, aufgrund seiner problemloseren Handhabung, Micrococcus luteus ATCC 9341. Testplatten mit Streptococcus pyogenes ATCC 8668: Der Testkeim mußte vor Herstellung der Testplatten auf Blutplatten mit Mucin [Medium: 500 ml Agar pH 7,4, 160 ml Mucinlösung (10 Gewichtsprozent), 3,5 ml Glucoselösung (50 Gewichtsprozent), 70 ml Hammelblut] frisch überimpft werden. Nach 15-18 Stunden Inkubation bei 37°C wurde eine Salinesuspension (E₅₇₈ 0,5) hergestellt und 1 ml dieser Suspension zu 100 ml Nährboden (Medium: Pepton 10 g, Fleischextrakt 8 g, Kochsalz 3 g, Na₂HPO₄ 2 g, Glucose 10 g auf 1 l, pH 7,2) pipettiert. Die zu 10 ml Portionen gegossenen Platten waren einige Tage bei 4°C haltbar. Testplatten mit Micrococcus luteus ATCC 9341: Eine Übernachtkultur (Medium: Pepton 10 g, Fleischextrakt 8 g, Kochsalz 3 g, Na₂HPO₄ 2 g, Glucose 10 g auf 1 l, pH 7,2) wurde auf eine Extinktion von 1,0 bei 578 nm verdünnt. Mit 0,25 ml dieser Suspension wurden 100 ml Agar angeimpft und Platten zu 10 ml gegossen. Die Testplatten konnten mehrere Tage bei 4°C aufbewahrt werden. […]

For data set [3] the following is noted: in vivo.
Data set [4] relates to resistenter Klon DSM 3095. The data set can be described thus: Biophotometer test, Epidermin added in different growth phases. It is filed as cell-based, Staphylococcus epidermidis. Here is the method:
(§2) Die Versuche zur Eigenhemmung des Produzentenstammes durch das Antibiotikum und die Untersuchung auf Resistenz der selektionierten Klone wurden im Biophotometer (Eppendorf-Photometer mit Umlaufautomat) durchgeführt.
(§3) Diese Versuche können z.B. im einzelnen wie folgt durchgeführt werden: Jeweils 0,5 ml einer 12 Stunden Kultur von Staphylococcus epidermidis NCIB 11536 bzw. des selektionierten resistenten Stammes DMS 3095 wurden auf frisches Medium überimpft.
(§4) Diese Kulturen ließ man bis zu einer Extinktion von 0,043 bei 578 nm hochwachsen (Küvetten mit einer Schichtdicke von 1 cm) und verteilte sie dann in Portionen zu 7,5 ml in die Küvetten des Biophotometers (Schichtdicke 2 cm).
(§5) Die Dichte der Zellsuspension wurde im Biophotometer auf eine Transmission von 90% eingestellt. Die Inkubation erfolgte bei 37°C und maximaler Belüftung. Epidermin wurde als wässrige Lösung in unterschiedlichen Wachstumsphasen zugegeben.
(§6) Bei beiden Stämmen wurden zu Beginn und in der Mitte der logarithmischen Phase unterschiedliche Epidermin-Konzentrationen zugegeben. Die Ergebnisse sind in Abbildung 13 und 14 dargestellt.

Data set [5] in a line: Solubility (characterisation data). It is filed as physicochemical. The source says:
(§7) Die neue Verbindung Epidermin kann durch folgende Angaben charakterisert werden: • 1. Natur: farbloses Pulver • 2. […] Methanol/Eisessig, löslich in niederen Alkoholen, unlöslich in Chloroform, Aceton, Diethylether, Petrolether. • 3. Farbreaktion auf Kieselgelplatten: Ninhydrin, Chlor/TDM (TDM=4,4'-Bis-(dimethylamino)diphenylmethan), Orcin/Schwefelsäure, Anisaldehyd/Schwefelsäure. Zerstörungsfreier Nachweis im UV-Licht bei 254 nm und durch Sprühen mit Wasser. • 4. Dünnschichtchromatographie: Es wurden Kieselgelfertigplatten 60 F₂₅₄ (Merck) verwendet. System A: Chloroform/Methanol/17% Ammoniak (2/2/1), RF = 0,73 System B: Chloroform/Methanol/17% Ammoniak (70/35/10) RF = 0,30 System C: n-Butanol/Eisessig/Wasser (4/1/1) RF = 0,05 • 5. HPLC : siehe Abb. 7. • 6. […] Molmasse: im Bereich von 2160. Je nach Isolierungsmethoden können als Anionen, z.B. Chlorid, Acetat oder Phosphat, enthalten sein. • 8. Ultraviolettabsorptionsspektrum: In wässriger Lösung langwelliges Maximum bei 267 nm (Abb. 3). • 9. Infrarotabsorptionsspektrum: IR-Spektrum einer Probe in einer Kaliumbromidtablette (Abb. 4). • 10. Kernmagnetische Resonanzspektren ¹H-NMR Spektrum: Abb. 5, ¹³C-NMR-Spektrum: Abb. 6

Data set [6] can be described thus: pH stability, retention of antibiotic activity in aqueous solutions of different pH. It is filed as physicochemical.
Excerpt: as §7
Stabilitätstests und chromatographische Untersuchungen wurden am lyophylisierten Butanolextrakt durchgeführt. Die Inkubation des Extraktes mit wässrigen Lösungen verschiedener pH-Werte ergab ab pH 10 eine starke Abnahme der Aktivität, im Bereich von pH 2-7 ist das Antibiotikum jedoch stabil.

In data set [7] the test system is Propionibakteriumacnes-Stämme. The data set can be described thus: Plate diffusion test and minimal inhibitory concentration (Tables 2 and 3). It is filed as cell-based, Propionibacterium acnes. The note with it: summary of Tabellen 2 und 3. The source says:
Während der Herstellung und Isolierung des Epidermins wurde zur biologischen Charakterisierung der Plattendiffusionstest angewandt; nämlich zur Aufnahme des Wirkungsspektrums sowie zur Kontrolle von Produktion, Aufarbeitung und Anreicherung. Der Test wurde, wie bei Zähner und Maas, Biology of antibiotics (Springer Verlag, Berlin-Heidelberg-New York, 1972) beschrieben, in Petrischalen der Firma Greiner, Nürtingen mit Filterrondellen von 6 mm Durchmesser (Macherey & Nagel, Düren) durchgeführt. Die Filterrondellen wurden mit 20 µl der betreffenden Testflüssigkeit benetzt, bei Raumtemperatur auf einer Glasplatte getrocknet und auf die Testplatten aufgelegt. Die Testplatten wurden bei 37°C inkubiert und nach ca. 16 Stunden die Wachstumshemmung ausgewertet. Als Routinetestkeim diente Streptococcus pyogenes ATCC 8668 und, aufgrund seiner problemloseren Handhabung, Micrococcus luteus ATCC 9341. Testplatten mit Streptococcus pyogenes ATCC 8668: Der Testkeim mußte vor Herstellung der Testplatten auf Blutplatten mit Mucin [Medium: 500 ml Agar pH 7,4, 160 ml Mucinlösung (10 Gewichtsprozent), 3,5 ml Glucoselösung (50 Gewichtsprozent), 70 ml Hammelblut] frisch überimpft werden. […]

The next data set concerns Zellen. As to the kind of experiment: Mode of action (bactericidal, lysis of cells). Type of data set: cell-based. The note with it: leads to lysis of the cells; same as the culture broth.
For data set [8], the system named is Vergleichsstamm NCIB 11536. As to the kind of experiment: Growth of the comparison strain on plates containing Epidermin. Type of data set: cell-based, Staphylococcus epidermidis. Conditions: undiluted 12 h culture on plates with 0,15 mg/ml Epidermin, 48 Stunden. As for the experimental part: as §1
The subject of data set [9] is Staphylococcus epidermidis NCIB 11536. As to the kind of experiment: Biophotometer test, Epidermin added in different growth phases. It is filed as cell-based. As for the experimental part:
as §2, §3, §4, §5, §6

Ends that are not written are not given here.

For `CN[C@@H]1[C@H](O)[C@H](NC)[C@H]2O[C@@]3(O)C(=O)C[C@@H](C)O[C@H]3O[C@@H]2[C@H]1O` [Spectinomycin], in data set [1], the “Sonstige Resistenzen” value is 0,5 mg/ml.

“Epidermin: ribosomal synthetisiertes, heterodet tetracyclisches Dokosapeptidantibiotikum aus Staphylococcus epidermidis DSM 3095 (IASKFICTPGCAKTGSFNSYCC; also: heterodetic tetracyclic lantibiotic, rings and modified residues not placed; UniProt P08136 31-52, looked up)”: the “Empfindlichkeit verschiedener Mikroorganismen” value in [2] is listed as “fast ausschließlich auf grampositive Bakterien wirken”. Moreover, the “antibakterielle Wirksamkeit” value in data set [2] (especially good against a whole series of gram-positive bacteria) was “sehr gute antibakterielle Wirksamkeit”. Moreover, in data set [3], the Verträglichkeit entry is on record as “sehr gut verträglich”. Further, the “toxische Wirkungen” value in [3] is recorded as “keine toxischen Wirkungen”. Also, the Wachstumsverlauf result in [4] (Abb. 14 Kurve 2: 120 µg/ml zu Beginn der logarithmischen Phase) is listed as “geringfügige Wachstumsverzögerung”; in data set [4] (Abb. 14 Kurve 3: 360 µg/ml in der Mitte der logarithmischen Phase), “Wachstumsverzögerung”; in [9] (Abb. 13 Kurve 2: 10 µg/ml zu Beginn der logarithmischen Phase), “Lyse”; in data set [9] (Abb. 13 Kurve 3: 10 µg/ml in der Mitte der logarithmischen Phase), “Lyse”; in data set [9] (Abb. 13 Kurve 4: 2,5 µg/ml in der Mitte der logarithmischen Phase) it was “Wachstumsverzögerung”. In data set [4] (all concentrations tested so far), the Lyse entry is “keine Lyse”. For the same compound, in data set [1] (adapted culture diluted to 10⁻⁶, plate with 0,5 mg/ml Epidermin, 24 Stunden 37°C), the Einzelkolonien worked out at 94. For the same compound, the Wachstum result in data set [1] (adapted culture, 1,0 mg/ml Epidermin in Flüssigkultur) was “noch gut gewachsen”; in data set [8], “wuchs auch nach 48 Stunden Inkubation nicht”. Also, the Resistenz result in data set [1] (against the Epidermin it produces itself) was “resistent”. Besides, the Epidermin-Resistenz in data set [1] (resistance shown up to this concentration) is at most 1 mg/mL. In addition, the Löslichkeit result is reported as “unlöslich” in data set [5] (in Chloroform, Aceton, Diethylether, Petrolether); “Sehr gut löslich” in data set [5] (in Mischungen aus Wasser/Eisessig bzw. Methanol/Eisessig); “löslich” in data set [5] (in niederen Alkoholen). The Stabilität entry is “starker Aktivitätsabfall” in data set [6] (bei höheren pH-Werten (above pH 7)); “Stabil” in [6] (pH=2 bis pH=7); “stabil” in data set [6] (tested on lyophilised butanol extract, pH 2-7). In [7], the Wirksamkeit entry is recorded as “sehr gute Wirksamkeit”. The Wirkung result in the data set on Zellen is “bakterizide Wirkung”.

For the compound “Nisin (ITSISLCTPGCKTGALMGCNMKTATCHCSIHVSK; also: lantibiotic: thioether rings and dehydro residues, not placed; UniProt P13068 24-57, looked up) [Vergleichsantibiotikum (vgl. DE-A-2 000 818 bzw. GB-B-1 182 156), Aktivität von 40000 units, reference compound]”, the “Empfindlichkeit verschiedener Mikroorganismen” value in data set [2] (Nisin mit einer Aktivität von 40000 units) is given as “fast ausschließlich auf grampositive Bakterien wirken”.

Turning to `[H]/N=C(/N)N[C@H]1[C@H](O)[C@@H](O)[C@H](O[C@@H]2O[C@@H](C)[C@](O)(C=O)[C@H]2O[C@@H]2O[C@@H](CO)[C@H](O)[C@@H](O)[C@@H]2NC)[C@@H](N/C(N)=N\[H])[C@@H]1O` [Streptomycin], the “Sonstige Resistenzen” value in data set [1] was at most 1 mg/mL.
